Test results taken from PMC5896574 (ChemMedChem, 2017).
Where two headings read alike, the source gives them in different places.

Columns and labels:
[1] = test system: HIV-1LAI; test: Antiviral assay using MT-2 cells exposed to HIV-1LAI; type: cell-based
[2] = test system: HIVAO2; test: Antiviral activity of 3b against HIVAO2; type: cell-based, HIV
[3] = test system: HIV-2ROD; test: Antiviral activity of 3b against HIV-2ROD; type: cell-based; settings: read-out: Antiviral activity (EC50)
[4] = test system: HIVDRV^RP20; test: Antiviral activity of 3b against HIVDRV^RP20; type: cell-based, HIV; settings: read-out: Antiviral activity (EC50)
[5] = test system: HIV-1NL4-3; test: Antiviral p24 assay, MT-4 cells exposed to wild-type HIV-1NL4-3; type: cell-based
[6] = test system: HIV-1DRV^RP20; test: microbe, parasite or virus in culture; type: cell-based; settings: for fold change of IC50: HIV-1DRV^RP20 relative to HIV-1NL4-3
[7] = test system: HIV-1DRV^RP40; test: microbe, parasite or virus in culture; type: cell-based; settings: for fold change of IC50: HIV-1DRV^RP40 relative to HIV-1NL4-3
[8] = test system: HIV-1DRV^RP30; test: microbe, parasite or virus in culture; type: cell-based; settings: for fold change of IC50: HIV-1DRV^RP30 relative to HIV-1NL4-3
[9] = biological target: HIV-1 protease (Human immunodeficiency virus type 1 group M subtype B, UniProt P04585); test: HIV-1 protease inhibitory assay; type: biochemical
[10] = read-out: antiviral IC50, MT-2 cells exposed to HIV-1LAI, mean of at least three experiments
[11] = Human immunodeficiency virus 1, MT2, read-out: antiviral IC50
[12] = Human immunodeficiency virus 1, MT4

For `CC(C)CN(C[C@@H](O)[C@H](Cc1ccccc1)NC(=O)O[C@H]1CO[C@H]2OCC[C@H]21)S(=O)(=O)c1ccc(C(N)=O)cc1` [3b, (3R,3aS,6aR)-Hexahydrofuro[2,3-b]furan-3-yl ((2S,3R)-4-((4-carba-moyl-N-isobutylphenyl)sulfonamido)-3-hydroxy-1-phenylbutan-2-yl)carbamate], the IC50 [1, 10] was 45 nM, the EC50 [2] was 29 nM and the EC50 [3] was 30 nM. The EC50 [4] was 97 nM.

Work on `CC(C)CN(C[C@@H](O)[C@H](Cc1ccccc1)NC(=O)O[C@H]1CO[C@H]2OCC[C@H]21)S(=O)(=O)c1ccc([C@@H](C)O)cc1` [3e, (3R,3aS,6aR)-Hexahydrofuro[2,3-b]furan-3-yl ((2S,3R)-3-hydroxy-4-((4-((R)-1-hydroxyethyl)-N-isobutylphenyl)sulfonamido)-1-phe-nylbutan-2-yl)carbamate] yielded an IC50 [1, 10] of 4 nM.

In the case of `CC(C)CN(C[C@@H](O)[C@H](Cc1ccccc1)NC(=O)O[C@H]1CO[C@H]2OCC[C@H]21)S(=O)(=O)c1ccc(N)cc1` [DRV, darunavir, reference compound], the IC50 [1, 11] is reported as 1.6 nM, the IC50 [5, 12] is reported as 3.4 nM and the IC50 [6, 12] is reported as 43 nM. For the same compound, the IC50 [7, 12] was > 1000 nM.

With `CC(C)CN(CC(O)C(Cc1ccccc1)NC(=O)OC1COC2OCCC12)S(=O)(=O)c1ccc(-c2cnco2)cc1` [3i, (3R,3aS,6aR)-Hexahydrofuro[2,3-b]furan-3-yl ((2S,3R)-3-hydroxy-4-((N-isobutyl-4-(oxazol-5-yl)phenyl)sulfonamido)-1-phenylbu-tan-2-yl)carbamate] the IC50 [1, 10] was 2.8 nM.

With `CC(C)CN(C[C@@H](O)[C@H](Cc1ccccc1)NC(=O)O[C@H]1CO[C@H]2OCC[C@H]21)S(=O)(=O)c1ccc(-c2nc(CO)co2)cc1` [3h, (3R,3aS,6aR)-Hexahydrofuro[2,3-b]furan-3-yl ((2S,3R)-3-hydroxy-4-((4-(4-(hydroxymethyl)oxazol-2-yl)-N-isobutylphenyl)sulfona-mido)-1-phenylbutan-2-yl)carbamate] the IC50 [1, 10] was 3.9 nM, the IC50 ([5]; MT-4 cells, 50 TCID50 HIV-1NL4-3, p24 assay) was 3 nM and the “fold change of IC50” value [6] was 88. The IC50 ([6]; MT-4 cells, 50 TCID50 HIV-1DRV^RP20, p24 assay) was 260 nM, the “fold change of IC50” value [8] was 99 and the IC50 ([8]; MT-4 cells, 50 TCID50 HIV-1DRV^RP30, p24 assay) was 290 nM. The “fold change of IC50” value [7] was > 337 and the IC50 ([7]; MT-4 cells, 50 TCID50 HIV-1DRV^RP40, p24 assay) was > 1000 nM.

Work on `COC(=O)c1coc(-c2ccc(S(=O)(=O)N(CC(C)C)C[C@@H](O)[C@H](Cc3ccccc3)NC(=O)O[C@H]3CO[C@H]4OCC[C@H]43)cc2)n1` [3g, Methyl 2-(4-(N-((2R,3S)-3-(((((3R,3aS,6aR)-hexahydrofuro[2,3-b]furan-3-yl)oxy)carbonyl)amino)-2-hydroxy-4-phenylbutyl)-N-isobutylsulfamoyl)phenyl)oxazole-4-carboxylate] yielded a Ki [9] of 0.0279 nM, an IC50 [1, 11] of 6.2 nM and an IC50 [5, 12] of 22 nM. For the same compound, the “fold change of IC50” value [6] was 15, the IC50 [6, 12] was 320 nM and the “fold change of IC50” value [8] was 20. The IC50 [8, 12] was 430 nM, the “fold change of IC50” value [7] was > 46 and the IC50 [7, 12] was > 1000 nM.

For `CC(C)CN(C[C@@H](O)[C@H](Cc1ccccc1)NC(=O)O[C@H]1CO[C@H]2OCC[C@H]21)S(=O)(=O)c1ccc(C(=O)O)cc1` [3a, 4-(N-((2R,3S)-3-(((((3R,3aS,6aR)-Hexahydrofuro[2,3-b]furan-3-yl)oxy)carbonyl)amino)-2-hydroxy-4-phenylbutyl)-N-isobutylsul-famoyl)benzoic acid], the IC50 ([1]; read-out: antiviral IC50, MT-2 cells exposed to HIV-1LAI) was > 1000 nM.
